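Dose response: 5 concentrations. Exposure: 48 h. Format: 96-well plates. Endpoint: linear interpolation; highest concentration if not reached. GI50 is the concentration that inhibits growth by half.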 Active and inactive are the calls of the source. Cut-off read from the data, not from the text of the source: active = GI50 up to about 1.1 µM and inactive = higher.
How the values were obtained:
Assay in all cases: inhibition of tumour cell growth, NCI panel, 48 h
PC-3 = system: PC-3
TK-10 = system: TK-10
HL-60 = system: HL-60
HT-29 = system: HT-29
KM12 = system: KM12
COLO 205 = system: COLO 205
UACC-257 = system: UACC-257
SF-539 = system: SF-539
SN12C = system: SN12C
NCI/ADR-RES = system: NCI/ADR-RES
A549 = system: A549
UACC-62 = system: UACC-62
OVCAR-8 = system: OVCAR-8
K562 = system: K562
SNB-19 = system: SNB-19
Malme-3M = system: Malme-3M
M14 = system: M14

Measured: GI50

O=c1n(CCCN2CCOCC2)nc2n1-c1ccc3ccccc3c1SC2
inactive: PC-3 38.6 µM | TK-10 84.1 µM | HL-60 31.1 µM | HT-29 19 µM | KM12 47.3 µM | COLO 205 1.43 µM | UACC-257 29.8 µM | SF-539 39.6 µM | SN12C 71.9 µM | NCI/ADR-RES 67.5 µM | A549 50 µM | UACC-62 21.4 µM | OVCAR-8 64.9 µM | K562 67.1 µM | SNB-19 52.6 µM

Cc1cc(C)nc(NS(=O)(=O)c2ccc(NC(=O)c3cc([N+](=O)[O-])cc([N+](=O)[O-])c3)cc2)n1
inactive: PC-3 58.7 µM | TK-10 > 100 µM | HL-60 30.1 µM | HT-29 31.4 µM | KM12 50.7 µM | COLO 205 18.3 µM | UACC-257 16.4 µM | SF-539 37 µM | SN12C 70.6 µM | NCI/ADR-RES > 100 µM | A549 > 100 µM | UACC-62 77.3 µM | Malme-3M 42.1 µM | OVCAR-8 > 100 µM | M14 45.8 µM | K562 60.7 µM | SNB-19 > 100 µM

O=C1c2ccc3ccccc3c2CCC1N1CCCCC1 (centres undefined)
inactive: PC-3 17.4 µM | TK-10 16.1 µM | HL-60 21.9 µM | HT-29 20.5 µM | KM12 17.7 µM | COLO 205 19.5 µM | UACC-257 20.7 µM | SF-539 14.6 µM | SN12C 15.6 µM | NCI/ADR-RES 20.7 µM | A549 19.5 µM | UACC-62 16.7 µM | Malme-3M 17.6 µM | OVCAR-8 20.7 µM | K562 17.6 µM | SNB-19 19.7 µM

Cc1ccc2c(c1)NC(=O)CCSSCCC(=O)N2
inactive: PC-3 > 100 µM | TK-10 > 100 µM | HL-60 > 100 µM | HT-29 > 100 µM | KM12 > 100 µM | COLO 205 > 100 µM | UACC-257 > 100 µM | SF-539 > 100 µM | SN12C > 100 µM | NCI/ADR-RES > 100 µM | A549 > 100 µM | UACC-62 > 100 µM | Malme-3M > 100 µM | OVCAR-8 > 100 µM | M14 > 100 µM | K562 > 100 µM | SNB-19 > 100 µM

COc1ccc(S(=O)(=O)Nc2ccc(-c3csc(N4C(=O)/C(=C/c5ccccc5)N=C4c4ccccc4)n3)cc2)cc1Cl
inactive: PC-3 25.4 µM | TK-10 47.4 µM | HL-60 24.6 µM | HT-29 > 100 µM | KM12 33.7 µM | COLO 205 34.5 µM | UACC-257 30.9 µM | SF-539 41.6 µM | SN12C 65.6 µM | NCI/ADR-RES 45.4 µM | A549 35.1 µM | UACC-62 16.8 µM | Malme-3M 38.3 µM | OVCAR-8 31.5 µM | M14 24.8 µM | K562 34.3 µM | SNB-19 44.2 µM

COc1c(O)cc2c(c1O)C(=O)C(Cc1ccc(O)cc1)CO2 (centres undefined)
inactive: PC-3 41.7 µM | TK-10 > 100 µM | HL-60 28.1 µM | HT-29 > 100 µM | KM12 89.3 µM | COLO 205 > 100 µM | UACC-257 > 100 µM | SF-539 56.4 µM | SN12C > 100 µM | NCI/ADR-RES 32.7 µM | A549 > 100 µM | UACC-62 99.8 µM | Malme-3M > 100 µM | OVCAR-8 63.1 µM | M14 > 100 µM | K562 22.8 µM | SNB-19 > 100 µM
